Assay results taken from paper PMC8791944, “GLUT3 inhibitor discovery through in silico ligand screening and in vivo validation in eukaryotic expression systems” (Scientific Reports, 2022).

Target: T1, GLUT1 (Homo sapiens, UniProt P11166)
T1 construct: expressed in transfected cells; host or cells: Saccharomyces cerevisiae hxt0 strain EBY.S7 (fgy1)
T1 sequence (P11166 1-492): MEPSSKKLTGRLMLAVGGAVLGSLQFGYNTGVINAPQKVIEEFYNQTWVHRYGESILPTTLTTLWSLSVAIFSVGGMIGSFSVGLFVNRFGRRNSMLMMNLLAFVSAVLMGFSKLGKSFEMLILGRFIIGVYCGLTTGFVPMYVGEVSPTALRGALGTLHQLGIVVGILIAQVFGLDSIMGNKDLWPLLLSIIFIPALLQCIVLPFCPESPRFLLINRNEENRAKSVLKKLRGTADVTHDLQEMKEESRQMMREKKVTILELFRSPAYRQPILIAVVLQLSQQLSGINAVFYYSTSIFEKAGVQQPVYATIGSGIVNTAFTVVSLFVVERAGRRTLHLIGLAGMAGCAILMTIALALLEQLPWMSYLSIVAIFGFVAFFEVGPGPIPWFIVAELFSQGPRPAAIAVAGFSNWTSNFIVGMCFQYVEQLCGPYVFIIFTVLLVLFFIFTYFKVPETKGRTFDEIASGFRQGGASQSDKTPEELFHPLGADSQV
Assay: Glucose transport assay, GLUT1 expressed in hxt^0 yeast cells EBY.S7
Type: cell-based
Conditions: read-out: IC50 for GLUT1 transport inhibition
Text: The most studied GLUTs are Class 1 GLUTs (GLUT1-4) and a Class 2 GLUT, GLUT5 (a fructose-only transporter). GLUT3 sequence homology and identity is 79% and 64%, 71% and 52%, 74% and 57%, and 60% and 38% with GLUT1, GLUT2, GLUT4, and GLUT5, respectively. The hxt^0 yeast cell systems expressing functional GLUT1-4[65],[69] and GLUT5[66] allow us to determine the in vivo transport activity (substrate uptake by a GLUT into whole cells) for individual GLUTs and establish GLUT3 inhibitor selectivity for these transporters. […] Given the higher sequence similarity within Class 1 GLUTs, we expected GLUT3 inhibitors to affect Class 1 GLUTs much more than GLUT5. Indeed, G3iA-G3iF reduced the transport activities of some of the other Class 1 GLUTs (Fig. 3A–C, Table 2, Supplementary Fig. S6). […] For example, G3iB was an equipotent inhibitor of GLUT4, while G3iD and G3iE inhibited GLUT1 in a similar manner to GLUT3. […] Moreover, G3iD affected all Class 1 GLUTs, having the best relative selectivity for GLUT4.
Figure 3 Effect of GLUT3 inhibitors on GLUT1, GLUT2, GLUT4, and GLUT5. The transport activity was assayed as the substrate uptake in hexose transporter-deficient yeast cells expressing functional GLUT1[65], GLUT2[69], GLUT4[65], or GLUT5[66]. […] Transport assay was initiated by the addition of C^14-labeled substrate and stopped after 10 min (see “Materials and methods” for details). (A–D) Effect of G3iA-G3iF, at 50 µM concentration, on the relative transport activities of GLUT1 (A), GLUT2 (B), GLUT4 (C), and GLUT5 (D). Standard deviations for experimental points come from at least three independent measurements.
The plasmids containing functional constructs of GLUT1-5 were transformed in the corresponding hxt^0 strains[65],[66],[73] (EBY.VW4000 for GLUT5S72Y, EBY.S7 for GLUT1, GLUT2∆loopS_Q455R, GLUT3 and GLUT3S66Y, and SDY.022 for GLUT4) and grown on 2% (w/v) agar plates of the respective media supplemented with 1% (w/v) maltose. An initial culture of ~ 10 ml was started with a few colonies and grown for 2–3 days if the media was SC-uracil with 1% (w/v) maltose (GLUT1, GLUT3, GLUT4) or 1–2 days if the media was YEP with 1% (w/v) maltose and 100 µg/ml geneticin G418 (GLUT2∆loopS_Q455R and GLUT5S72Y). […] Then, cells were transferred in the same media so that OD600nm ~ 0.5 and grown further for 1–2 days.
For transport activity assay, cells in the hexose media were centrifuged (1000×g, 5 min, room temperature), washed once with PBS buffer (10 mM Na2HPO4, 1.8 mM KH2PO4, 2.7 mM KCl, 137 mM NaCl, pH 7.4), and resuspended in PBS buffer at an OD600nm ~ 10; each assay contained 100 µl of this cell solution. […] Substrate uptake into cells was linear for more than 20 min. […] The filtration membranes were transferred into scintillation vials with 10 ml of Scintillation Solution (BioSafeII; Research Products International, Mount Prospect, IL, USA), and vortexed briefly. The radioactivity was determined with a scintillation counter (Tri-carb 2900TR, Perkin Elmer, USA). As all compounds were solubilized in dimethyl sulfoxide (DMSO), controls for determining the relative transport activity included 1% (v/v) DMSO to represent DMSO used as vehicle control (i.e., 100% activity), and known inhibitors at saturating concentrations, 200 µM phloretin for GLUT1-4[69],[82], and 100 µM N-[4-(methylsulfonyl)-2-nitrophenyl]-1,3-benzodioxol-5-amine (MSNBA) for GLUT5 (i.e., complete inhibition). […] Data were analyzed with GraphPad Prism (San Diego, CA, USA).
Supplementary Figure S6. Dose response curves for GLUT3 inhibitors on the transport activities of GLUT1, GLUT2, and GLUT4 in hxt^0 yeast cells. Dose response curves for GLUT3 inhibitors in GLUT1 (top row), GLUT2 (middle row), and GLUT4 (bottom row). […] Error bars represent standard deviations from at least three independent measurements. Graphs, data analysis, and IC50 values were generated with GraphPad (www.graphpad.com).

Q: CC(=O)Nc1ccc(S(=O)(=O)Nc2ccc(Nc3cc(N(C)C)nc(C)n3)cc2)cc1 [G3iA, N-(4-{[(4-{[6-(dimethylamino)-2-methylpyrimidin-4-yl]amino}phenyl)amino]sulfonyl}phenyl)acetamide] was tested. Which IC50 did it give?
A: The IC50 was over 50 µM.

Q: Which IC50 does the source give for Cc1cccnc1OC1CCN(c2cc(N3CCCC3CO)ncn2)CC1 (stereo not drawn) [G3iC] here?
A: The IC50 was 49.4 ± 6.7 µM.

Q: With Cc1cc(NC(=O)CCC2Cc3ccccc3NC2=O)nc(-c2ccccc2)n1 (stereo not drawn) [G3iD] as the molecule, how does the IC50 read?
A: The IC50 was 17.7 ± 2.3 µM.

Q: O=C(Nc1cccc(Cl)c1)c1cccc(NC(=O)c2cccc([N+](=O)[O-])c2)c1 [G3iE, N-{3-[(3-chloroanilino)carbonyl]phenyl}-3-nitrobenzamide] was tested. Which IC50 did it give?
A: Its IC50 is 22.4 ± 3.7 µM.

Q: COc1ccccc1-n1c(/C=C/c2ccc(O)cc2)nc2ccc(Br)cc2c1=O [G3iB, 6-bromo-2-[(E)-2-(4-hydroxyphenyl)ethenyl]-3-(2-methoxyphenyl)quinazolin-4(3H)-one] was tested. Which IC50 did it give?
A: Its IC50 is 25 ± 8.6 µM.

Q: How did the IC50 turn out when Cc1ccccc1CN(Cc1nnc(C(C)(C)C)o1)c1ccc2nc(O)[nH]c2c1 [G3iF] was run?
A: The IC50 was over 50 µM.
